From US9340590B2 (priority 2011, dated 2016)
Positions of bridges follow the written chain, without caps; N, C: chain ends. Non-standard residues stand in square brackets, D forms with d. Residues, ends and D or L forms follow the SMILES beside them. *: point of attachment. Pent4ynoyl = C#CCCC(=O)*; Pra = C#CC[C@H](N)C(=O)O; Abu = CC[C@H](N)C(=O)O

Tests used:
hNav1.7 = hNav1.7 (Homo sapiens, UniProt Q15858); assay: cell-based; settings: Nav1.7 Use IC50
hNav1.5 = hNav1.5 (Homo sapiens, UniProt Q14524); assay: cell-based
Chain of hNav1.5 (Q14524 whole entry, looked up): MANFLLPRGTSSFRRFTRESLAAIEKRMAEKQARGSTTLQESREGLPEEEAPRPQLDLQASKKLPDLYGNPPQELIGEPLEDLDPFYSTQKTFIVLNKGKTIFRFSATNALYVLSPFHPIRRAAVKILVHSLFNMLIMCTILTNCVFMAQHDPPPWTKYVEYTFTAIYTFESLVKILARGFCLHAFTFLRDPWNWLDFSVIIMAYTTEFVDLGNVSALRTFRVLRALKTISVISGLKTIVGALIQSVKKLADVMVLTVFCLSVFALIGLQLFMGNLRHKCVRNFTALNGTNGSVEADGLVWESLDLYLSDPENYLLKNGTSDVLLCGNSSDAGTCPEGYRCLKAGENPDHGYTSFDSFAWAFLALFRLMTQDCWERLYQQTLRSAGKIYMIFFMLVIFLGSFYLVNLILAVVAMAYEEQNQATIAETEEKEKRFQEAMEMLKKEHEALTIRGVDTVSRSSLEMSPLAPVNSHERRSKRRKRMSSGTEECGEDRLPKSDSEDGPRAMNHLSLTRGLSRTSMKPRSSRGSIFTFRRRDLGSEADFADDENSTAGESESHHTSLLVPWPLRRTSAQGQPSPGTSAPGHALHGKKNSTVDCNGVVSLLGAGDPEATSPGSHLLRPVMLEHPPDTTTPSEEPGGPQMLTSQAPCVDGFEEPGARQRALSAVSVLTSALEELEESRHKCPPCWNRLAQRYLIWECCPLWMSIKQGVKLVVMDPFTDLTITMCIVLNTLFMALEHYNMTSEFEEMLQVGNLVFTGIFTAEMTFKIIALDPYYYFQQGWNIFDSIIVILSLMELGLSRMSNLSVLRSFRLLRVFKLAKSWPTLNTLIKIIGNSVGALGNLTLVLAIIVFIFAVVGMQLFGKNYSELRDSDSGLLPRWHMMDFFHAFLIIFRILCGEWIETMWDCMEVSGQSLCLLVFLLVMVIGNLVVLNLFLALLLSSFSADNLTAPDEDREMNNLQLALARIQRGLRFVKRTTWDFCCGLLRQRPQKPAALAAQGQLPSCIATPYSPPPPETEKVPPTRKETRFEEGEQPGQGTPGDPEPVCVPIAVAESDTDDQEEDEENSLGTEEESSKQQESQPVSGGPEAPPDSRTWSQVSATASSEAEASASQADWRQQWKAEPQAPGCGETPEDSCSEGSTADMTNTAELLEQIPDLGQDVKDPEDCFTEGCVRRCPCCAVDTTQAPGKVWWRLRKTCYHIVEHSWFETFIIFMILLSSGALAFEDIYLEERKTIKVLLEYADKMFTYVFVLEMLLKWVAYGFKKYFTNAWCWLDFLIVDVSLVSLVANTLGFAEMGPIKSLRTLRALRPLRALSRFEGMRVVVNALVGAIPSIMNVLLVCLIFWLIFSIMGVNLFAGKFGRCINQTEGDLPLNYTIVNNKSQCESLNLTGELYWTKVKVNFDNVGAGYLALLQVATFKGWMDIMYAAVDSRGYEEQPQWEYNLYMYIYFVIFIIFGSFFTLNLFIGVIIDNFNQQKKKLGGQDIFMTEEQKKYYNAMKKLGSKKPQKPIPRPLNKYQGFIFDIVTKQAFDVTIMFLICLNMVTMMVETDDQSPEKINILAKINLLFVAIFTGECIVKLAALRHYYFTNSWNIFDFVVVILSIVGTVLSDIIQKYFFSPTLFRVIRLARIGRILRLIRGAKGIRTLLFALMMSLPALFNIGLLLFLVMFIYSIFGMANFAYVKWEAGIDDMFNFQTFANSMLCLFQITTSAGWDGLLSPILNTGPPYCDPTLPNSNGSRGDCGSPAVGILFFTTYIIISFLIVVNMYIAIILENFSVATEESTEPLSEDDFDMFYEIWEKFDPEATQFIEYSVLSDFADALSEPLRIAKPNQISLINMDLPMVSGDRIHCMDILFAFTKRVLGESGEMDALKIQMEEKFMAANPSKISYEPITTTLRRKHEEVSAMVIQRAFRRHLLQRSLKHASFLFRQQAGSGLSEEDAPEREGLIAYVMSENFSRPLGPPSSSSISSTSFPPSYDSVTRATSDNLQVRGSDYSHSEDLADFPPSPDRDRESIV

Chain of hNav1.7 (Q15858 whole entry, looked up): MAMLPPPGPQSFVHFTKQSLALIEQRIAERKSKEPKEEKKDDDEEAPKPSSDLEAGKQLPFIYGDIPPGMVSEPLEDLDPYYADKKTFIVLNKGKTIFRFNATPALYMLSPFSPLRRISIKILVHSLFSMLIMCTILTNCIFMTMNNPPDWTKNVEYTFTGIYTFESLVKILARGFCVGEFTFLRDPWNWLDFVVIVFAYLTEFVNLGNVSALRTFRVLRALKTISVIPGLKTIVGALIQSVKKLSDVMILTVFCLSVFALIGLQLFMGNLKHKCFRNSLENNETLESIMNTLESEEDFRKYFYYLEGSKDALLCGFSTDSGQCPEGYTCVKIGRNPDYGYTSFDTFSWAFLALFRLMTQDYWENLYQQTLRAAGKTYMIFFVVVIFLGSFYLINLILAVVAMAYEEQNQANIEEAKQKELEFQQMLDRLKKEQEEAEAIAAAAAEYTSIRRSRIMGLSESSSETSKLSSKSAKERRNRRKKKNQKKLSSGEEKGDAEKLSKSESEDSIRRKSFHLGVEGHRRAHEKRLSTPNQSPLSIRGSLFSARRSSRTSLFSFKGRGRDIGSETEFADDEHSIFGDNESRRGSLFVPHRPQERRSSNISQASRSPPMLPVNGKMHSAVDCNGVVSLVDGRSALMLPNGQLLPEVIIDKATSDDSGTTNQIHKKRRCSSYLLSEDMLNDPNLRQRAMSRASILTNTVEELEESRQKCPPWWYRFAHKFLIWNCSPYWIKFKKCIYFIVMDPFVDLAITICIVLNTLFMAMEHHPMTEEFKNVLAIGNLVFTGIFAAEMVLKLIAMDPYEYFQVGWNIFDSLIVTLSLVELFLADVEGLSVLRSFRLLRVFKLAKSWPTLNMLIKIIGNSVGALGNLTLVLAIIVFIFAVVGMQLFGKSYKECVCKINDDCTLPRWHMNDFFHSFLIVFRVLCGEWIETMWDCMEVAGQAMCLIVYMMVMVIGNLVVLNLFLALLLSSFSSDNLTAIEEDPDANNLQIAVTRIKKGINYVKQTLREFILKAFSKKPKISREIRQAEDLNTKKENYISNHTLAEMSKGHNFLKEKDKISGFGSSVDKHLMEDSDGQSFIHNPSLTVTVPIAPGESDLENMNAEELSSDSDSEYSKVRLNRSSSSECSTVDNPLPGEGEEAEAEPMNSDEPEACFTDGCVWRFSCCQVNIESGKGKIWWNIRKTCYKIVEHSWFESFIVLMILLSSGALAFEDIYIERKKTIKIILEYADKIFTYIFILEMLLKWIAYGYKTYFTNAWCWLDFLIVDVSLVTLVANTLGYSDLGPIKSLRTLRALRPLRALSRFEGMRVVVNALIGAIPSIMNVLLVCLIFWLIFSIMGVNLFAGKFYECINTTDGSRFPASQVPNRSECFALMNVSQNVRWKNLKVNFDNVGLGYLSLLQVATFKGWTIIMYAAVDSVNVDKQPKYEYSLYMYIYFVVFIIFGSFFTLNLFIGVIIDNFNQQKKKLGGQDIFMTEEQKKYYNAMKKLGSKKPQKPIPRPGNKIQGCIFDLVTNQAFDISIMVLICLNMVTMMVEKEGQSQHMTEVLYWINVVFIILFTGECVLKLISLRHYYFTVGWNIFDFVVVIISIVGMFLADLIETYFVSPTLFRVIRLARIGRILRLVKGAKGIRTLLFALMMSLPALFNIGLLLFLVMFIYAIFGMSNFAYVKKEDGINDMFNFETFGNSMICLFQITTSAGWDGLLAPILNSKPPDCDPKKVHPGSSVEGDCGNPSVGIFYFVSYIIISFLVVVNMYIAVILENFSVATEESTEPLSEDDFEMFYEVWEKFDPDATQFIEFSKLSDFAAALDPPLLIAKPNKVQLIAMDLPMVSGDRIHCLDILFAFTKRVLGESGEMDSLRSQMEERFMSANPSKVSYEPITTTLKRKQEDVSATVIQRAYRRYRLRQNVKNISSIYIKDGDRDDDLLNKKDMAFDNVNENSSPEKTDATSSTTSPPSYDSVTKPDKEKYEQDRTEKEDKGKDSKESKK

Compound | IC50 (hNav1.7) | IC50 (hNav1.5)
C#CC[C@@H]1NC(=O)[C@H](CC(=O)O)NC(=O)[C@@H]2CCCN2C(=O)[C@H]([C@@H](C)CC)NC(=O)[C@@H]2CSSC[C@@H]3NC(=O)[C@H](C(C)C)NC(=O)[C@H](CC(C)C)NC(=O)[C@H](CC(N)=O)NC(=O)[C@@H]4CCCN4C(=O)[C@H](CCCNC(=N)N)NC(=O)[C@H](CSSC[C@H](NC(=O)[C@@H](N)CC(=O)O)C(=O)N[C@@H](CC(C)C)C(=O)NCC(=O)N[C@@H](C)C(=O)N[C@@H](Cc4ccccc4)C(=O)N[C@@H](CCCNC(=N)N)C(=O)N[C@@H](CCCCN)C(=O)N2)NC(=O)[C@H](CSSC[C@@H](C(=O)N[C@@H](CCCCN)C(=O)N[C@@H](Cc2ccc(O)cc2)C(=O)N[C@H](C(=O)N[C@@H](Cc2ccccc2)C(N)=O)C(C)C)NC(=O)[C@H](Cc2c[nH]c4ccccc24)NC(=O)[C@H](CCCNC(=N)N)NC(=O)[C@H](Cc2c[nH]cn2)NC(=O)[C@H](CC(C)C)NC(=O)[C@H](CCCNC(=N)N)NC(=O)[C@H](CO)NC3=O)NC(=O)[C@H](CCCCN)NC(=O)[C@H](CC(=O)O)NC1=O (H-DCLGAFRKCIPD[Pra]DKCCRPNLVCSRLHRWCKYVF-NH2; disulfide 2-17, 9-23, 16-30) | 3 nM | > 10000 nM
CC[C@H](C)[C@@H]1NC(=O)[C@@H]2CSSC[C@@H]3NC(=O)[C@H](C(C)C)NC(=O)[C@H](CC(C)C)NC(=O)[C@H](CC(N)=O)NC(=O)[C@@H]4CCCN4C(=O)[C@H](CCCNC(=N)N)NC(=O)[C@H](CSSC[C@H](NC(=O)[C@@H](N)CC(=O)O)C(=O)N[C@@H](CC(C)C)C(=O)NCC(=O)N[C@@H](C)C(=O)N[C@@H](CC(C)C)C(=O)N[C@@H](CCCNC(=N)N)C(=O)N[C@@H](CCCCN)C(=O)N2)NC(=O)[C@H](CSSC[C@@H](C(=O)N[C@@H](CCCCN)C(=O)N[C@@H](Cc2ccc(O)cc2)C(=O)N[C@H](C(=O)N[C@@H](Cc2ccccc2)C(=O)N[C@@H](Cc2c[nH]c4ccccc24)C(=O)O)C(C)C)NC(=O)[C@H](Cc2c[nH]c4ccccc24)NC(=O)[C@H](CCCNC(=N)N)NC(=O)[C@H](Cc2c[nH]cn2)NC(=O)[C@H]([C@@H](C)O)NC(=O)[C@H](CCCNC(=N)N)NC(=O)[C@H](CO)NC3=O)NC(=O)[C@H](CCCCN)NC(=O)[C@H](CC(=O)O)NC(=O)[C@H](CC(N)=O)NC(=O)[C@H](CC(=O)O)NC(=O)[C@@H]2CCCN2C1=O (H-DCLGALRKCIPDNDKCCRPNLVCSRTHRWCKYVFW-OH; disulfide 2-17, 9-23, 16-30) | 50 nM | > 10000 nM
CC[C@@H]1NC(=O)[C@H](CC(=O)O)NC(=O)[C@@H]2CCCN2C(=O)[C@H]([C@@H](C)CC)NC(=O)[C@@H]2CSSC[C@@H]3NC(=O)[C@H](C(C)C)NC(=O)[C@H](CC(C)C)NC(=O)[C@H](CC(N)=O)NC(=O)[C@@H]4CCCN4C(=O)[C@H](CCCNC(=N)N)NC(=O)[C@H](CSSC[C@H](NC(=O)[C@@H](N)CC(=O)O)C(=O)N[C@@H](CC(C)C)C(=O)NCC(=O)N[C@@H](C)C(=O)N[C@@H](CC(C)C)C(=O)N[C@@H](CCCNC(=N)N)C(=O)N[C@@H](CCCCN)C(=O)N2)NC(=O)[C@H](CSSC[C@@H](C(=O)N[C@@H](CCCCN)C(=O)N[C@@H](Cc2ccc(O)cc2)C(=O)N[C@H](C(=O)N[C@@H](Cc2ccccc2)C(N)=O)C(C)C)NC(=O)[C@H](Cc2c[nH]c4ccccc24)NC(=O)[C@H](CCCNC(=N)N)NC(=O)[C@H](Cc2c[nH]cn2)NC(=O)[C@H](CC(C)C)NC(=O)[C@H](CCCNC(=N)N)NC(=O)[C@H](CO)NC3=O)NC(=O)[C@H](CCCCN)NC(=O)[C@H](CC(=O)O)NC1=O (H-DCLGALRKCIPD[Abu]DKCCRPNLVCSRLHRWCKYVF-NH2; disulfide 2-17, 9-23, 16-30) | 8.7 nM | > 10000 nM
C#CCCC(=O)NCCCC[C@@H]1NC(=O)[C@H](CC(=O)O)NC(=O)[C@@H]2CCCN2C(=O)[C@H]([C@@H](C)CC)NC(=O)[C@@H]2CSSC[C@@H]3NC(=O)[C@H](C(C)C)NC(=O)[C@H](CC(C)C)NC(=O)[C@H](CC(N)=O)NC(=O)[C@@H]4CCCN4C(=O)[C@H](CCCNC(=N)N)NC(=O)[C@H](CSSC[C@H](NC(=O)[C@@H](N)CC(=O)O)C(=O)N[C@@H](CC(C)C)C(=O)NCC(=O)N[C@@H](CC)C(=O)N[C@@H](CC(C)C)C(=O)N[C@@H](CCCNC(=N)N)C(=O)N[C@@H](CCCCN)C(=O)N2)NC(=O)[C@H](CSSC[C@@H](C(=O)N[C@@H](CCCCN)C(=O)N[C@@H](Cc2ccc(O)cc2)C(=O)N[C@H](C(=O)N[C@@H](Cc2ccccc2)C(N)=O)C(C)C)NC(=O)[C@H](Cc2c[nH]c4ccccc24)NC(=O)[C@H](CCCNC(=N)N)NC(=O)[C@H](Cc2c[nH]cn2)NC(=O)[C@H]([C@@H](C)O)NC(=O)[C@H](CCCNC(=N)N)NC(=O)[C@H](CO)NC3=O)NC(=O)[C@H](CCCCN)NC(=O)[C@H](CC(=O)O)NC1=O (H-DCLG[Abu]LRKCIPDK(Pent4ynoyl)DKCCRPNLVCSRTHRWCKYVF-NH2; disulfide 2-17, 9-23, 16-30) | 2 nM | > 10000 nM
CC[C@H](C)[C@@H]1NC(=O)[C@@H]2CSSC[C@@H]3NC(=O)[C@H](C(C)C)NC(=O)[C@H](CC(C)C)NC(=O)[C@H](CC(N)=O)NC(=O)[C@@H]4CCCN4C(=O)[C@H](CCCNC(=N)N)NC(=O)[C@H](CSSC[C@H](NC(=O)[C@H](CC(=O)O)NC(=O)[C@H](CO)NC(=O)CN)C(=O)N[C@@H](CC(C)C)C(=O)NCC(=O)N[C@@H](C)C(=O)N[C@@H](Cc4ccccc4)C(=O)N[C@@H](CCCNC(=N)N)C(=O)N[C@@H](CCCCN)C(=O)N2)NC(=O)[C@H](CSSC[C@@H](C(=O)N[C@@H](CCCCN)C(=O)N[C@@H](Cc2ccc(O)cc2)C(=O)N[C@H](C(=O)N[C@@H](Cc2ccccc2)C(=O)N[C@@H](Cc2ccccc2)C(=O)O)C(C)C)NC(=O)[C@H](Cc2c[nH]c4ccccc24)NC(=O)[C@H](CCCNC(=N)N)NC(=O)[C@H](Cc2c[nH]cn2)NC(=O)[C@H]([C@@H](C)O)NC(=O)[C@H](CCCNC(=N)N)NC(=O)[C@H](CO)NC3=O)NC(=O)[C@H](CCCCN)NC(=O)[C@H](CC(=O)O)NC(=O)[C@H](CC(N)=O)NC(=O)[C@H](CC(=O)O)NC(=O)[C@@H]2CCCN2C1=O (H-GSDCLGAFRKCIPDNDKCCRPNLVCSRTHRWCKYVFF-OH; disulfide 4-19, 11-25, 18-32) | 47 nM | > 10000 nM
C#CCCC(=O)N[C@@H](CC(=O)O)C(=O)N[C@H]1CSSC[C@@H]2NC(=O)[C@@H]3CSSC[C@@H](C(=O)N[C@@H](CCCCN)C(=O)N[C@@H](Cc4ccc(O)cc4)C(=O)N[C@H](C(=O)N[C@@H](Cc4ccccc4)C(N)=O)C(C)C)NC(=O)[C@H](Cc4c[nH]c5ccccc45)NC(=O)[C@H](CCCNC(=N)N)NC(=O)[C@H](Cc4c[nH]cn4)NC(=O)[C@H]([C@@H](C)O)NC(=O)[C@H](CCCNC(=N)N)NC(=O)[C@H](CO)NC(=O)[C@H](CSSC[C@H](NC(=O)[C@H](CCCCN)NC(=O)[C@H](CCCNC(=N)N)NC(=O)[C@H](Cc4ccccc4)NC(=O)[C@H](C)NC(=O)CNC(=O)[C@H](CC(C)C)NC1=O)C(=O)N[C@@H]([C@@H](C)CC)C(=O)N1CCC[C@H]1C(=O)N[C@@H](CC(=O)O)C(=O)N[C@@H](CC)C(=O)N[C@@H](CC(=O)O)C(=O)N[C@@H](CCCCN)C(=O)N3)NC(=O)[C@H](C(C)C)NC(=O)[C@H](CC(C)C)NC(=O)[C@H](CC(N)=O)NC(=O)[C@@H]1CCCN1C(=O)[C@H](CCCNC(=N)N)NC2=O (Pent4ynoyl-DCLGAFRKCIPD[Abu]DKCCRPNLVCSRTHRWCKYVF-NH2; disulfide 2-17, 9-23, 16-30) | 4 nM | > 10000 nM
C#CCCC(=O)N[C@@H](CC(=O)O)C(=O)N[C@H]1CSSC[C@@H]2NC(=O)[C@@H]3CSSC[C@@H](C(=O)N[C@@H](CCCCN)C(=O)N[C@@H](Cc4ccc(O)cc4)C(=O)N[C@H](C(=O)N[C@@H](Cc4ccccc4)C(N)=O)C(C)C)NC(=O)[C@H](Cc4c[nH]c5ccccc45)NC(=O)[C@H](CCCNC(=N)N)NC(=O)[C@H](Cc4c[nH]cn4)NC(=O)[C@H]([C@@H](C)O)NC(=O)[C@H](CCCNC(=N)N)NC(=O)[C@H](CO)NC(=O)[C@H](CSSC[C@H](NC(=O)[C@H](CCCCN)NC(=O)[C@H](CCCNC(=N)N)NC(=O)[C@H](CC(C)C)NC(=O)[C@H](CC)NC(=O)CNC(=O)[C@H](CC(C)C)NC1=O)C(=O)N[C@@H]([C@@H](C)CC)C(=O)N1CCC[C@H]1C(=O)N[C@@H](CC(=O)O)C(=O)N[C@@H](CC)C(=O)N[C@@H](CC(=O)O)C(=O)N[C@@H](CCCCN)C(=O)N3)NC(=O)[C@H](C(C)C)NC(=O)[C@H](CC(C)C)NC(=O)[C@H](CC(N)=O)NC(=O)[C@@H]1CCCN1C(=O)[C@H](CCCNC(=N)N)NC2=O [4-Pen-[2-Abu5,13;Leu6;Arg28]GpTx-1(1-34)] (Pent4ynoyl-DCLG[Abu]LRKCIPD[Abu]DKCCRPNLVCSRTHRWCKYVF-NH2; disulfide 2-17, 9-23, 16-30) | 3 nM | > 10000 nM
CC[C@H](C)[C@@H]1NC(=O)[C@@H]2CSSC[C@@H]3NC(=O)[C@H](C(C)C)NC(=O)[C@H](CC(C)C)NC(=O)[C@H](CC(N)=O)NC(=O)[C@@H]4CCCN4C(=O)[C@H](CCCNC(=N)N)NC(=O)[C@H](CSSC[C@H](NC(=O)[C@@H](N)CC(=O)O)C(=O)N[C@@H](CC(C)C)C(=O)NCC(=O)N[C@@H](C)C(=O)N[C@@H](Cc4ccccc4)C(=O)N[C@@H](CCCNC(=N)N)C(=O)N[C@@H](CCCCN)C(=O)N2)NC(=O)[C@H](CSSC[C@@H](C(=O)N[C@@H](CCCCN)C(=O)N[C@@H](Cc2ccc(O)cc2)C(=O)N[C@H](C(=O)N[C@@H](Cc2ccccc2)C(=O)N[C@@H](Cc2ccccc2)C(=O)O)C(C)C)NC(=O)[C@H](Cc2c[nH]c4ccccc24)NC(=O)[C@H](CCCNC(=N)N)NC(=O)[C@H](Cc2c[nH]cn2)NC(=O)[C@H]([C@@H](C)O)NC(=O)[C@H](CCCNC(=N)N)NC(=O)[C@H](CO)NC3=O)NC(=O)[C@H](CCCCN)NC(=O)[C@H](CC(=O)O)NC(=O)[C@H](CC(N)=O)NC(=O)[C@H](CC(=O)O)NC(=O)[C@@H]2CCCN2C1=O [Ala5;Phe6;Arg28]GpTx-1(1-34)-Phe-] (H-DCLGAFRKCIPDNDKCCRPNLVCSRTHRWCKYVFF-OH; disulfide 2-17, 9-23, 16-30) | 116 nM | > 10000 nM
